SMILES strings stand for the structures.

The values that follow come from patent publication US20250367121A1, “DOSAGE FORMS COMPRISING ACTIVE PHARMACEUTICAL INGREDIENTS” (AXSOME THERAPEUTICS, INC., priority 2018, published 2025).

This data set can be described thus: clinical. To be noted: human, in vivo.

Regarding `CN(C)CCc1c[nH]c2ccc(Cn3cncn3)cc12` [Rizatriptan, rizatriptan], the concentration peaked (Cmax) at 20.7 ng/mL and the Tmax came out at 45 min.
